From ChEMBL document CHEMBL3217568, “trans-Stilbenoids: potent and selective inhibitors for human cytochrome P450 1B1” (Medchemcomm, 2011)

Columns and labels:
Cytochrome P450 1A2 = target: T1, Cytochrome P450 1A2 (Homo sapiens, UniProt P05177); assay: Inhibition of human CYP1A2 expressed in Escherichia coli assessed as changes in ethoxyresorufin O-deethylation activity after 3 mins by spectrofluorometer analysis; assay type: ADME
T1 sequence (P05177 whole entry): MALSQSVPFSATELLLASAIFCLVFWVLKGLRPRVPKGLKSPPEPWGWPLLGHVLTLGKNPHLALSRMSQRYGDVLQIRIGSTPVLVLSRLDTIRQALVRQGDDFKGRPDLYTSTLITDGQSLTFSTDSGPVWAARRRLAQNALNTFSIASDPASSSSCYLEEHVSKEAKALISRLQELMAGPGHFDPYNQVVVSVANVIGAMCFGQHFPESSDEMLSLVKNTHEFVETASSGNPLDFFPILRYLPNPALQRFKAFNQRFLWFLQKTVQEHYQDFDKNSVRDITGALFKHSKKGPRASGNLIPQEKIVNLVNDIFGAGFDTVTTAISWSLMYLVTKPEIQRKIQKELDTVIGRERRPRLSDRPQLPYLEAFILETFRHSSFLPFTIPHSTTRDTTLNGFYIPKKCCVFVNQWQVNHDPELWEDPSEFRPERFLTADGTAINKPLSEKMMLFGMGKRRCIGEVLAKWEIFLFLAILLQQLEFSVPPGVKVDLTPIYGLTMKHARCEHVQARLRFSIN

Cytochrome P450 1A1 [1] = target: T2, Cytochrome P450 1A1 (Homo sapiens, UniProt P04798); assay: Inhibition of human CYP1A1 expressed in Escherichia coli assessed as changes in ethoxyresorufin O-deethylation activity after 3 mins by spectrofluorometer analysis; assay type: ADME
T2 sequence (P04798 whole entry): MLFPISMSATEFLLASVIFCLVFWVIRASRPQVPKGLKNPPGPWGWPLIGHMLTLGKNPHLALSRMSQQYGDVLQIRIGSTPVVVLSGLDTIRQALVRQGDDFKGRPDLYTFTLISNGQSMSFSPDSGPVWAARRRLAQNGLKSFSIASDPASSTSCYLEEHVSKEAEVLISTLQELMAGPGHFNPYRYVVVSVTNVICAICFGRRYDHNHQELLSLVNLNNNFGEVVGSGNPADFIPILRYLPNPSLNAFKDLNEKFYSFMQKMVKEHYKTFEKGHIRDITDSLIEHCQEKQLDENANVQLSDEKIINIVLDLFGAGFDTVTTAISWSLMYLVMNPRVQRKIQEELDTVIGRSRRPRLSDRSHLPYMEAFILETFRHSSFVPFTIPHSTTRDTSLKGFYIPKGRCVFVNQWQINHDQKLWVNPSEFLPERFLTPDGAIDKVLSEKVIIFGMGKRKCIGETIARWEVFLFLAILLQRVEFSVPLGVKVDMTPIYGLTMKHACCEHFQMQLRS

Homo sapiens [2] = species on record: Homo sapiens; assay: Selectivity ratio of IC50 for human CYP1A1 to IC50 for human CYP1B1
Homo sapiens [3] = species on record: Homo sapiens; assay: Selectivity ratio of IC50 for human CYP1A2 to IC50 for human CYP1B1
Cytochrome P450 1B1 [4] = target: T3, Cytochrome P450 1B1 (Homo sapiens, UniProt Q16678); assay: Inhibition of human CYP1B1 expressed in Escherichia coli assessed as changes in ethoxyresorufin O-deethylation activity after 3 mins by spectrofluorometer analysis
T3 sequence (Q16678 whole entry): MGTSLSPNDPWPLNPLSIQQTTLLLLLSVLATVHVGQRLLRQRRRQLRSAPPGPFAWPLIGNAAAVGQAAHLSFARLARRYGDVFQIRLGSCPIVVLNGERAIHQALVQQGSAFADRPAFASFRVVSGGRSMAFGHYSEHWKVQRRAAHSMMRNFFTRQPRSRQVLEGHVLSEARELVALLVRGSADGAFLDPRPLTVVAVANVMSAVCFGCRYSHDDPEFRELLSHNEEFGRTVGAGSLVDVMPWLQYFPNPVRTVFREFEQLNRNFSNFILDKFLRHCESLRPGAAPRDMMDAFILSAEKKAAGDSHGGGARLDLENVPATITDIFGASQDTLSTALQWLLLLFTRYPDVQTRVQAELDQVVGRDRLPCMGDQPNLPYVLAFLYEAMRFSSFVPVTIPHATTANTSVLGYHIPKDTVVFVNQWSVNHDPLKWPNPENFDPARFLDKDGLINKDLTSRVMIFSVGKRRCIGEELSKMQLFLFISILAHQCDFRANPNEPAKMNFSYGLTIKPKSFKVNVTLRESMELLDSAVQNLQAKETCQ

Cytochrome P450 1A1 [5] = target: T2, Cytochrome P450 1A1; assay: Inhibition of CYP1A1 (unknown origin); assay type: ADME
Cytochrome P450 1B1 [6] = target: T3, Cytochrome P450 1B1; assay: Inhibition of CYP1B1 (unknown origin)

SMILES	IC50 (Cytochrome P450 1A2) [nM]	IC50 (Cytochrome P450 1A1 [1]) [nM]	Ratio IC50 (Homo sapiens [2])	Ratio IC50 (Homo sapiens [3])	IC50 (Cytochrome P450 1B1 [4]) [nM]	Ki (Cytochrome P450 1A1 [5]) [nM]	Ki (Cytochrome P450 1B1 [6]) [nM]
COc1ccc(/C=C/c2ccccc2OC)c(OC)c1	792	336	22	51	15.5	–	–
COc1cc(/C=C/c2ccc(O)cc2)cc(OC)c1 [PTEROSTILBENE]	–	–	–	–	–	570	900
COc1ccc(/C=C/c2cccc(OC)c2OC)c(OC)c1	247	192	3.2	4.1	60.3	–	–
COc1ccc(/C=C/c2c(OC)ccc(OC)c2OC)c(OC)c1	1740	420	127	526	3.3	–	–
COc1cc(O)cc(/C=C/c2ccc(O)cc2)c1	–	–	–	–	–	120	900
COc1ccc(/C=C/c2cc(OC)c(OC)c(OC)c2)c(OC)c1	4690	301	4.2	66	71	–	–
COc1ccc(/C=C/c2cc(O)cc(O)c2)cc1 [RESVERATROL 4'-METHYL ETHER]	–	–	–	–	–	160	2100
COc1ccc(OC)c(/C=C/c2ccc(OC)cc2OC)c1	302	350	100	86	3.51	–	–
COc1ccc(/C=C/c2ccc(OC)cc2OC)cc1	1060	666	12	18	57.5	–	–
COc1ccc(/C=C/c2c(OC)cccc2OC)c(OC)c1	170	350	194	95	1.77	–	–
COc1ccc(/C=C/c2ccc(OC)cc2OC)c(OC)c1	204	222	25	23	8.81	–	–
COc1ccc(/C=C/c2cc(OC)c(OC)cc2OC)c(OC)c1	236	78.4	14	43	5.46	–	–
COc1ccc(/C=C/c2ccc(OC)c(OC)c2)c(OC)c1	337	190	4.6	8.1	41.8	–	–
COc1cccc(/C=C/c2ccc(OC)cc2OC)c1	903	98.2	6.5	59	15.2	–	–
COc1ccc(/C=C/c2c(OC)cc(OC)cc2OC)c(OC)c1	188	148	30	38	4.93	–	–
COc1ccc(/C=C/c2ccccc2)c(OC)c1	326	493	20	13	25	–	–
